# Reference: patent US6303630A, “Diarylsulfone non-nucleoside reverse transcriptase inhibitors of human immunodeficiency virus” (University of the Sciences in Philadelphia, priority 2000, dated 2001)
# Like-named read-outs stand apart in the source and are kept apart here.
# Legend:
# [1] = tested on: HIV-1; assay: NCI in vitro anti-HIV drug screen: XTT-formazan assay, protection of T4 lymphocytes (CEM) from HIV-1 cytopathic effects; assay type: cell-based, human immunodeficiency virus (HIV-1); details: for EC50 / inhibition at 200 µM / inhibition at 20 µM / inhibition at 2 µM / inhibition at 0.2 µM / inhibition at 63.2 µM / inhibition at 6.33 µM / inhibition at 0.634 µM / inhibition at 0.0635 µM: Human immunodeficiency virus 1, CCRF-CEM; for EC50: 144 h, HIV-1 infected CEM cells, 6 days, XTT, approximate values, read-out: EC50 (50% effective concentration against HIV cytopathic effects); for inhibition at 200 µM / inhibition at 20 µM / inhibition at 2 µM / inhibition at 0.2 µM / inhibition at 63.2 µM / inhibition at 6.33 µM / inhibition at 0.634 µM / inhibition at 0.0635 µM: read-out: Percent of Protection; for inhibition at 2 µM / activity at 2 µM: dose 2.00 × 10^-6 Molar; for inhibition at 6.33 µM / activity at 6.33 µM: dose 6.33 × 10^-6 Molar; for activity at 200 µM / activity at 20 µM / activity at 2 µM / activity at 0.2 µM / activity at 63.2 µM / activity at 6.33 µM / activity at 0.634 µM / activity at 0.0635 µM: Human immunodeficiency virus 1, Lymphocyte, read-out: Percent of Control, Infected; for TI50 (IC/EC), Therapeutic Index: IC50/EC50
# Method in brief: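 Protection from HIV-1 cytopathic killing was read spectrophotometrically via XTT formazan from viable cells after 6-day culture (37°, 5% CO2) of infected CEM cells with compound in half-log10 dilutions; drug-treated uninfected cells served as toxicity controls, AZT run alongside.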
# [2] = tested on: T4 lymphocytes (CEM cell line); assay: Cell growth / toxicity control in uninfected T4 lymphocytes (CEM), XTT-formazan; assay type: cell-based; details: for IC50: uninfected CEM cells, 6 days, XTT, approximate values, read-out: IC50 (50% inhibitory concentration for cell growth); for activity at 200 µM / activity at 20 µM / activity at 2 µM / activity at 0.2 µM / activity at 63.2 µM / activity at 6.33 µM / activity at 0.634 µM / activity at 0.0635 µM: read-out: Percent of Control, Uninfected; for activity at 2 µM: dose 2.00 × 10^-6 Molar; for activity at 0.2 µM: dose 2.00 × 10^-7 Molar; for activity at 63.2 µM: dose 6.32 × 10^-5 Molar; for activity at 0.634 µM: dose 6.34 × 10^-7 Molar; for activity at 0.0635 µM: dose 6.35 × 10^-8 Molar
# Method in brief: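 Toxicity control: compound, first dissolved in DMSO and serially diluted half-log10 to a final 1:200 dilution, incubated 6 days at 37° and 5% CO2 with CEM cells lacking HIV-1. Viable cells measured spectrophotometrically via XTT-derived formazan and checked microscopically.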
# [3] = Homo sapiens, CCRF-CEM, dose 2.00 × 10^-4 Molar
# [4] = Homo sapiens, CCRF-CEM, dose 2.00 × 10^-5 Molar
# [5] = Homo sapiens, CCRF-CEM, dose 6.33 × 10^-6 Molar
# [6] = dose 2.00 × 10^-4 Molar, listed as Example 21
# [7] = dose 2.00 × 10^-5 Molar, listed as Example 21
Compound,EC50 [1],inhibition at 200 µM ([1]; dose 2.00 × 10^-4 Molar),inhibition at 20 µM ([1]; dose 2.00 × 10^-5 Molar),inhibition at 2 µM [1],inhibition at 0.2 µM ([1]; dose 2.00 × 10^-7 Molar),inhibition at 63.2 µM ([1]; dose 6.32 × 10^-5 Molar),inhibition at 6.33 µM [1],inhibition at 0.634 µM ([1]; dose 6.34 × 10^-7 Molar),inhibition at 0.0635 µM ([1]; dose 6.35 × 10^-8 Molar),activity at 200 µM ([1]; dose 2.00 × 10^-4 Molar),activity at 20 µM ([1]; dose 2.00 × 10^-5 Molar),activity at 2 µM [1],activity at 0.2 µM ([1]; dose 2.00 × 10^-7 Molar),activity at 63.2 µM ([1]; dose 6.32 × 10^-5 Molar),activity at 6.33 µM [1],"activity at 2 µM ([2]; Homo sapiens, CCRF-CEM)","activity at 0.2 µM ([2]; Homo sapiens, CCRF-CEM)","activity at 63.2 µM ([2]; Homo sapiens, CCRF-CEM)","activity at 0.634 µM ([2]; Homo sapiens, CCRF-CEM)","activity at 0.0635 µM ([2]; Homo sapiens, CCRF-CEM)",other results
"CNc1ccccc1S(=O)(=O)c1ccc(Cl)cc1OC [Compound 86, 2-(4-chloro-2-methoxyphenylsulfonyl)-N-methylaniline]",106 µM,78.8%,5.32%,0.36%,1.18%,27.1%,1.52%,1.22%,0.03%,79.2%,7.21%,2.35%,3.16%,28.5%,3.49%,96.5%,91.7%,95.9%,97.1%,95.8%,"activity at 0.634 µM ([1]; dose 6.34 × 10^-7 Molar): 3.2%; activity at 0.0635 µM ([1]; dose 6.35 × 10^-8 Molar): 2.03%; TI50 (IC/EC), Therapeutic Index [1]: > 1.88 × 10^0; IC50 ([2]; Homo sapiens, CCRF-CEM, 144 h): > 200 µM; activity at 200 µM [2, 3]: 83.9%; activity at 20 µM [2, 4]: 88.3%; activity at 6.33 µM [2, 5]: 94.8%"
"CNc1ccccc1S(=O)(=O)c1ccccc1[N+](=O)[O-] [Compound 66, 2-(2-nitrophenylsulfonyl)-N-methylaniline]",1.02 µM,–,–,93.1%,–,–,107%,–,–,–,–,93.8%,–,–,106%,101%,105%,23.9%,99.4%,98.5%,"TI50 (IC/EC), Therapeutic Index ([1]; listed as Example 21): 4.24 × 10^+1; Percent of Protection ([1]; dose 2.00 × 10^-4 Molar, 200 µM, listed as Example 21, 200 µM): -15.92%; Percent of Control, Infected [1, 6]: -4.33%; Percent of Protection ([1]; dose 2.00 × 10^-5 Molar, 20 µM, listed as Example 21, 20 µM): 98.73%; Percent of Control, Infected [1, 7]: 98.86%; Percent of Protection ([1]; dose 2.00 × 10^-7 Molar, 0.2 µM, listed as Example 21, 0.2 µM): 4.77%; Percent of Control, Infected ([1]; dose 2.00 × 10^-7 Molar, listed as Example 21): 14.29%; Percent of Protection ([1]; dose 6.32 × 10^-5 Molar, 63.2 µM, listed as Example 21, 63.2 µM): 24.17%; Percent of Control, Infected ([1]; dose 6.32 × 10^-5 Molar, listed as Example 21): 31.75%; Percent of Protection ([1]; dose 6.34 × 10^-7 Molar, 0.634 µM, listed as Example 21, 0.634 µM): 19.34%; Percent of Control, Infected ([1]; dose 6.34 × 10^-7 Molar, listed as Example 21): 27.41%; Percent of Protection ([1]; dose 6.35 × 10^-8 Molar, 0.0635 µM, listed as Example 21, 0.0635 µM): 2.40%; Percent of Control, Infected ([1]; dose 6.35 × 10^-8 Molar, listed as Example 21): 12.16%; Percent of Control, Uninfected [2, 6]: -4.40%; Percent of Control, Uninfected [2, 7]: 104.09%; Percent of Control, Uninfected ([2]; dose 6.33 × 10^-6 Molar, listed as Example 21): 109.40%; IC50 ([2]; listed as Example 21): 43.5 µM"
"O=[N+]([O-])c1ccccc1S(=O)(=O)c1cccc2c1NCCC2 [Compound 46, 8-(2-nitrophenylsulfonyl)-1,2,3,4-tetrahydroquinoline]",1.32 µM,-0.28%,76.4%,69.4%,6.11%,33.6%,89.1%,16.3%,-1.64%,1.73%,76.8%,70%,7.99%,35%,89.3%,95.4%,98.9%,38.1%,100%,98.9%,"activity at 0.634 µM ([1]; dose 6.34 × 10^-7 Molar): 17.9%; activity at 0.0635 µM ([1]; dose 6.35 × 10^-8 Molar): 0.39%; TI50 (IC/EC), Therapeutic Index [1]: 3.78 × 10^+1; IC50 ([2]; Homo sapiens, CCRF-CEM, 144 h): 49.9 µM; activity at 200 µM [2, 3]: 1.77%; activity at 20 µM [2, 4]: 95.8%; activity at 6.33 µM [2, 5]: 94%"
